ChEMBL document CHEMBL3853265 (Medchemcomm, 2016)

How the values were obtained:
[1] = molecular target: T1, Solute carrier family 22 member 12 (Homo sapiens, UniProt Q96S37); assay: Inhibition of human C-terminal eGFP-tagged URAT1 long isoform expressed in CHO cells assessed as decrease in [14C]-uric acid uptake preincubated for 15 mins followed by [14C]-uric acid addition and incubated in dark for 3 hrs by scintillation counting method; format: cell-based
T1 sequence (Q96S37 whole entry): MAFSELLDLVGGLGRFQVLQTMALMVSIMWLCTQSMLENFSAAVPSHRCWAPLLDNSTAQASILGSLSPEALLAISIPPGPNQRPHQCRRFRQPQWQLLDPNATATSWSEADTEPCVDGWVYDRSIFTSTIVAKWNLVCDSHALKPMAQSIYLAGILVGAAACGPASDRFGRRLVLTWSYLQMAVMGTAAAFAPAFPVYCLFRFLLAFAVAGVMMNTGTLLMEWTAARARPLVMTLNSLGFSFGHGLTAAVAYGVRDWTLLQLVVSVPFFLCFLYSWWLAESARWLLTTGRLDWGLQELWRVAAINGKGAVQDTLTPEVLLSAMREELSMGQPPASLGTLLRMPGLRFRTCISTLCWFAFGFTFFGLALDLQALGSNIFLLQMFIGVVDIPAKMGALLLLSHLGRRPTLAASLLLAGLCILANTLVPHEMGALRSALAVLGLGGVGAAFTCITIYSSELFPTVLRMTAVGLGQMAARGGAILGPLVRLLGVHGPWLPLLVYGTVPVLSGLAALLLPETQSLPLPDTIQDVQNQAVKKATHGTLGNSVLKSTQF

[2] = Intrinsic clearance in human liver microsomes; format: ADME; conditions: read-out: CLH
[3] = Octanol-water partition co-efficient, log D of the compound by shake flask method; format: physicochemical
CYP2C9 = CYP2C9 (Homo sapiens, UniProt P11712); assay: Inhibition of CYP2C9 (unknown origin) at 3 uM relative to control; format: ADME
[4] = Dissociation constant, pKa of the compound; format: physicochemical

CYP2C9, sequence (P11712 whole entry): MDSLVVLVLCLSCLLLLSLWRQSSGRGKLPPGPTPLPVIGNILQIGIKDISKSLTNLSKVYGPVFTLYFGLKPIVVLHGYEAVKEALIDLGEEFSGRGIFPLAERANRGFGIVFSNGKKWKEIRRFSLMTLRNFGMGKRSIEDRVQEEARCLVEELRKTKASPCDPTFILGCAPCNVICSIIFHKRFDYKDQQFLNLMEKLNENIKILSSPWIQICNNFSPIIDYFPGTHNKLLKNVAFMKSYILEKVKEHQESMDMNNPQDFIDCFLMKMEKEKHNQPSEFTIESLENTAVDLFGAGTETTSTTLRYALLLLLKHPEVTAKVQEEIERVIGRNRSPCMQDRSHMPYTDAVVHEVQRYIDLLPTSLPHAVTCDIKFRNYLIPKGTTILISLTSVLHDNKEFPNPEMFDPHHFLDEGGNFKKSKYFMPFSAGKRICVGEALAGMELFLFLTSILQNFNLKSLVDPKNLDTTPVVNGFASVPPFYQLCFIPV

Structure (SMILES) | IC50 [1] [nM] | microsomal CLint [2] [µL/min/mg] | logD [3] | inhibition at 3 µM (CYP2C9) [%] | pKa [4]
N#Cc1ccc(NS(=O)(=O)c2ccccc2C(F)(F)F)cc1C(F)(F)F | 29 | < 12 | 1.8 | 61 | 
COc1ncccc1NS(=O)(=O)c1ccccc1C(F)(F)F | 3920 |  |  |  | 
N#Cc1ccc(NS(=O)(=O)c2ccccc2C(F)(F)F)cc1Cl | 18 | 11 | 1.8 | 92 | 5.1
O=S(=O)(Nc1ccccc1F)c1ccccc1C(F)(F)F | 3610 |  | 2.4 | 15 | 
Cc1ccc(NS(=O)(=O)c2ccccc2C(F)(F)F)cn1 | 1030 |  |  |  | 
COc1ccccc1S(=O)(=O)Nc1ccc(C#N)c(Cl)c1 | 199 |  |  |  | 
N#Cc1ccc(NS(=O)(=O)c2ccccc2C#N)cc1Cl | 156 |  |  |  | 
COc1ccc(NS(=O)(=O)c2ccccc2C(F)(F)F)cn1 | 1170 |  |  |  | 
COc1ccncc1NS(=O)(=O)c1ccccc1C(F)(F)F | > 10000 |  |  |  | 
O=S(=O)(Nc1ccc(F)c(F)c1)c1ccccc1C(F)(F)F | 1970 |  |  |  | 
Cc1ccncc1NS(=O)(=O)c1ccccc1C(F)(F)F | > 10000 |  |  |  | 
O=S(=O)(Nc1ccccc1OC(F)F)c1ccccc1C(F)(F)F | 1970 |  |  |  | 
N#Cc1ccc(NS(=O)(=O)c2ccccc2Cl)cc1Cl | 81 |  |  |  | 
O=S(=O)(Nc1cccc(OC(F)(F)F)c1)c1ccccc1C(F)(F)F | 1480 | 55 | 3.9 | 81 | 
Cc1ccccc1S(=O)(=O)Nc1ccc(C#N)c(Cl)c1 | 89 |  |  |  | 

Continued, values first:

IC50 [1] [nM] | microsomal CLint [2] [µL/min/mg] | logD [3] | inhibition at 3 µM (CYP2C9) [%] | pKa [4] | Structure (SMILES)
111 |  |  |  |  | N#Cc1cc(Cl)ccc1NS(=O)(=O)c1ccccc1C(F)(F)F
89 | < 8 | 1.3 | 18 |  | COc1cncc(NS(=O)(=O)c2ccccc2C(F)(F)F)c1
484 |  |  |  |  | O=S(=O)(Nc1ccc(F)c(C(F)(F)F)c1)c1ccccc1C(F)(F)F
18 | < 12 | 2.3 | 76 | 5.8 | N#Cc1cc(NS(=O)(=O)c2ccccc2C(F)(F)F)ccc1Cl
187 |  |  |  |  | N#Cc1ccc(Cl)cc1NS(=O)(=O)c1ccccc1C(F)(F)F
81 |  |  |  |  | N#Cc1cc(NS(=O)(=O)c2ccccc2Cl)ccc1Cl
616 | 19 | 0.8 | 11 |  | N#Cc1ccccc1NS(=O)(=O)c1ccccc1C(F)(F)F
127 |  |  |  |  | N#Cc1cc(NS(=O)(=O)c2ccccc2C#N)ccc1Cl
183 |  |  |  |  | Cc1ccccc1S(=O)(=O)Nc1ccc(Cl)c(C#N)c1
119 |  |  |  |  | N#Cc1ccc(NS(=O)(=O)c2ccccc2C(F)(F)F)cc1
20 |  |  |  |  | N#Cc1cc(NS(=O)(=O)c2ccccc2OC(F)(F)F)ccc1Cl
71 |  |  |  |  | N#Cc1ccc(Cl)c(NS(=O)(=O)c2ccccc2C(F)(F)F)c1
166 | < 8 | 1.9 | 28 |  | N#Cc1cccc(NS(=O)(=O)c2ccccc2C(F)(F)F)c1
7 | 153 | 2.5 | 39 |  | O=S(=O)(Nc1cnc2ccccc2c1)c1ccccc1C(F)(F)F
32 | 18 | 2 | 86 | 5.1 | N#Cc1cc(NS(=O)(=O)c2ccccc2C(F)(F)F)ccc1C(F)(F)F
23 | 30 | 1 | 86 |  | N#Cc1c(Cl)cccc1NS(=O)(=O)c1ccccc1C(F)(F)F
39 | 14 | 1.1 | 82 |  | N#Cc1ccc(NS(=O)(=O)c2ccccc2C(F)(F)F)c(Cl)c1
185 |  |  |  |  | Cc1cncc(NS(=O)(=O)c2ccccc2C(F)(F)F)c1
35 | 14 | 1.6 | 38 | 5.3 | O=S(=O)(Nc1cncc(Br)c1)c1ccccc1C(F)(F)F
